Data as given in patent publication US7067553B2, “Thiourea compounds and the pharmaceutical compositions containing the same” (Pacific Corporation, priority 2000, dated 2006).

Assays:
vanilloid receptor = molecular target: T1, vanilloid receptor (Rattus norvegicus, UniProt O35433); assay: 45Ca influx test (calcium uptake) in cultured DRG neurons, capsaicin-stimulated; format: cell-based; conditions: neonatal SD rat DRG neurons; capsaicin 0.5 μM; 45Ca 10 μCi/ml; 10 min at room temperature; NR: no response
T1 construct: DRG nerve cells from the primary culture of 2–3 days were equilibrated; endogenous in cells; host or cells: primary culture of dorsal root ganglion neurons from neonatal SD rats
T1 sequence (O35433 whole entry): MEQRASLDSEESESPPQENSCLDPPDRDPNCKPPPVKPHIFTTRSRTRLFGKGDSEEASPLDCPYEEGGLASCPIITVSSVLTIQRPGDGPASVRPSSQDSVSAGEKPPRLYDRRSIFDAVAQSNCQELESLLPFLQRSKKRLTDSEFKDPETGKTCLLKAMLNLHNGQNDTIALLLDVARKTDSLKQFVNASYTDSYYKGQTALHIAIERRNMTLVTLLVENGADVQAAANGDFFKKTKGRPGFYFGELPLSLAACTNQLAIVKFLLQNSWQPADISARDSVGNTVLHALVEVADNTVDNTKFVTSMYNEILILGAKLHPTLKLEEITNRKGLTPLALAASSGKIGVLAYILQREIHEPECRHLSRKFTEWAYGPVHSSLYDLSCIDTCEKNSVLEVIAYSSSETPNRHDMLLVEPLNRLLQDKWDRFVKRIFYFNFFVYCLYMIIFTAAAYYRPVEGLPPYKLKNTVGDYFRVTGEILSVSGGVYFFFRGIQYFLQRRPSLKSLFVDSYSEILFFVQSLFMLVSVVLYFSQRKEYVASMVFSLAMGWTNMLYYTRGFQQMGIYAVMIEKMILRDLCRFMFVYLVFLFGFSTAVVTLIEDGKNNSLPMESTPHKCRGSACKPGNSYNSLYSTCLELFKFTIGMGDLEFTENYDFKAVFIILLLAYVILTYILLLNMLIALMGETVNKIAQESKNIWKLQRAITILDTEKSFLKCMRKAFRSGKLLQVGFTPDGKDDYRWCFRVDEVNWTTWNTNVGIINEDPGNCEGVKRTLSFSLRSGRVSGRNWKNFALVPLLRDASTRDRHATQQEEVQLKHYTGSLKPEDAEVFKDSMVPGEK
Procedure: 1) Separation of Spinal Dorsal Root Ganglia (DRG) in Newborn Rats and Primary Culture Thereof
Neonatal(2-day old or younger than 2-day old) SD rats were put in ice for 5 minutes to anesthetize and disinfected with 70% ethanol. DRG of all part of spinal cord were dissected (Wood et al., 1988, J. Neurosci. 8, pp3208–3220) and collected in DME/F12 medium to which 1.2 g/l sodium bicarbonate, 50 mg/l gentamycin were added. The DRG were incubated sequentially at 37° C. for 30 min in 200 U/ml collagenase and 2.5 mg/mil trypsin, separately. The ganglia were washed twice with DME/F12 medium supplemented with 10% horse serum, triturated through a fire-polished Pasteur pipette, filtered through Nitex 40 membrane to obtain single cell suspension. This was subjected to centrifugation, then re-suspended in cell culture medium at certain level of cell density. As the cell culture medium, DME/F12 medium supplemented with 10% horse serum, diluted 1:1 with identical medium conditioned by C6 glioma cells (2 days on a confluent monolayer) was used, and NGF(Nerve Growth Factor) was added to final concentration of 200 ng/ml. After the cells were grown 2 days in medium where cytosine arabinoside (Ara-C, 100 μM) was added to kill dividing nonneuronal cells, medium was changed to one without Ara-C. The resuspended cells were plated at a density of 1500–1700 neurons/well onto Terasaki plates previously coated with 10 μg/ml poly-D-ornithine.
2) ^45Ca Influx Experiments
DRG nerve cells from the primary culture of 2–3 days were equilibrated by washing 4 times with HEPES (10 mM, pH 7.4)-buffered Ca^2+, Mg^2+-free HBSS (H-ABSS). The solution in each well was removed from the individual well. Medium containing the test compound plus capsaicin (final concentration 0.5 μM) and ^45Ca (final concentration 10 μCi/ml) in H-HBSS was added to each well and incubated at room temperature for 10 min. Terasalki plates were washed six times with H-HBSS and dried in an oven. To each well, 0.3% SDS (10 μl) was added to elute ^45Ca. After the addition of […] of scintillation cocktail into each well, the amount of ^45Ca influx into neuron was measured by counting radioactivity.

Male ICR mice [1] = assay: Antiinflammatory activity test: TPA-induced mouse ear edema test; format: in vivo; conditions: dose 1 mg/ear topical; TPA 2.5 μg; ear weight 24 h after TPA
Procedure: (4) Antiinflammatory Activity Test: TPA(12-O-tetradecanoylphorbol 13-acetate)-induced Mouse Ear Edema Test
Male ICR mice(body weight 25–30 g), 10 animals/group, were treated topically on the right ear with 30 μl of TPA (2.5 μg) solution in acetone and after 15 min. 30 μl of acetone or test compound solution in acetone was applied topically. After six hours, an identical treatment was applied again. After twenty four hours following the treatment of TPA, the animals were sacrificed and ear tissue was dissected using 6 mm-diameter punch. Ear tissue dissected were weighed to the nearest 0.1 mg on an electrobalance. The increased weight of the tissue compared to control group was considered as an index of inflammation. The percent inhibition is defined by the following equation: % inlibition=(C−T)/C×100, wherein C and T represent an increase of ear weight in TPA-treated and TPA+drug-treated group, respectively.

Male ICR mice [2] = assay: Analgesic activity test: mouse writhing test by inducing with phenyl-p-quinone; format: in vivo; conditions: dose 1 mg/kg intraperitoneally 30 min before phenyl-p-quinone; writhes vs control
Procedure: (3) Analgesic Activity Test: Mouse Writhing Test by Inducing with Phenyl-p-quinone
Male ICR mice (mean body weight 25 g) were maintained in a controlled lighting environment (12 h on/12 h off for experiment. Animals received an intraperitoneal injection of 0.3 ml of the chemical irritant phenyl-p-quinone (dissolved in saline containing 5% ethanol to be a dose of 4.5 mg/lkg) and 6 min later, the number of abdominal constrictions was counted in the subsequent 6 min period. Animals (10 animals/group) received 0.2 ml of test compounds solution in vehicle of ethanol/Tween 80/saline (10/10/80) intraperitoneally 30 min before the injection of phenyl-p-quinone. A reduction in the number of writhes responding to the test drug compound relative to the number responding in saline control group was considered to be indicative of an analgesic effect. Analgesic effect was calculated by % inhibition equation (% inhibitio=(C−T)/C×100), wherein C and T represent the number of writhes in control and compound-treated group, respectively (Table 2).

| IC50 (vanilloid receptor) | Compound | Anti-inflammatory effect (% Inhibition) (Male ICR mice [1]) | Analgesic effect (% Inhibition) (Male ICR mice [2]) |
| --- | --- | --- | --- |
| 1800 nM | CC(C)(C)C(=O)OCC(CCc1ccc(C(C)(C)C)cc1)CNC(=S)NCc1ccc(NS(C)(=O)=O)cc1 (stereo not shown) [Example 17] |  |  |
| 2500 nM | CC(C)(C)C(=O)OCC(C/N=C(\S)NCc1ccc(NS(C)(=O)=O)cc1)Cc1ccc(C(C)(C)C)cc1 (stereo not shown) [Example 10] |  |  |
| 13000 nM | Cc1ccc(CC(CN/C(S)=N/Cc2ccc(NS(C)(=O)=O)cc2)COC(=O)c2ccccc2)cc1C (stereo not shown) [Example 9] |  |  |
| 680 nM | COc1cc(CNC(=S)NCC(COC(=O)C(C)(C)C)Cc2ccc(C)c(C)c2)ccc1NS(C)(=O)=O (stereo not shown) [Example 12] | 41% | 65% |
| 38000 nM | COc1cc(CNC(=S)NCC(COC(=O)c2ccccc2)Cc2ccc(C)c(C)c2)ccc1NS(C)(=O)=O (stereo not shown) [Example 13] |  |  |
| 1100 nM | Cc1ccc(CCC(CNC(=S)NCc2ccc(NS(C)(=O)=O)cc2)COC(=O)C(C)(C)C)cc1C (stereo not shown) [Example 16] |  |  |
| > 50000 nM | CC(C)(C)c1ccc(CC(CNC(=S)NCc2ccc(NS(C)(=O)=O)cc2)COC(=O)c2ccccc2)cc1 (stereo not shown) [Example 11] |  |  |
| > 50000 nM | COc1cc(C/N=C(\S)NCC(COC(=O)c2ccccc2)Cc2ccc(C(C)(C)C)cc2)ccc1NS(C)(=O)=O (stereo not shown) [Example 15] |  |  |
